{
  "source": "patent US6596284B1",
  "about": "“Treating eczema with a combination of isotonic saline ocean® and nasal mast cell stabilizers” (priority 2002, dated 2003)",
  "experiment": "Topical application of cromolyn sodium in OCEAN at the affected site in twenty adult subjects with atopic eczema",
  "assay_type": "in vivo, human",
  "conditions": "300 mg/45 ml OCEAN (0.67%), applied every 4 to 6 hours at the affected site, after two weeks",
  "protocol": "A group of twenty adult subjects suffering from atopic eczema were asked to apply cromolyn sodium (at a concentration of 300 mg/45 ml OCEAN® giving a concentration of 0.67%) every 4 to 6 hours at the affected site, and instructed to rub the solution gently into the lesion.",
  "note": "Counter-ions that a name gives are not always drawn.",
  "data": [
    {"smiles": "O=C(O)c1cc(=O)c2c(OCC(O)COc3cccc4oc(C(=O)O)cc(=O)c34)cccc2o1", "note": "[cromolyn sodium, disodium salt of 1,3-bis-(2-carboxy-chromone-5″yloxy)2-hydroxy propane]", "values": [
      {"measurement": "subjects who experienced relief from the symptoms", "result": "19 of the 20"}
    ]}
  ]
}
